Tested on: JE
Experiment: JE chemokine level in plasma of treated mice by ELISA
Format: in vivo
Settings: bolus protein, each of three doses
Method: FIG. 7 illustrates induction levels of IP-10 (A) and JE (B) following i.v. or i.m. injection of murine IFN-β protein. C57BL/6 mice were administered 15, 150, or 500 ng of purified recombinant mIFN-β protein (specific activity=2.0×10^8 units/mg) by either i.v. (via tail vein) or i.m. injection (n=3 mice per group). The mice were bled at 2, 4, 6, 12, 24, and 48 hours post-injection, and the plasma levels of IP-10 and JE were measured by ELISA (R&D Systems).
FIG. 19 illustrates IP-10 and JE induction with a pBRES mIFN-β regulated expression system of the present invention.
• A. Development of mIFN-β Biomarkers: For higher sensitivity in detection of murine IFN-β (mIFN-β) activity in vivo, biomarkers for mIFN-β activity were identified in mice after injection of mIFN-β protein or mIFN-β encoded gene therapy vectors. […] In the present study, the expression of the MxA mouse homologue, Mx1, (see e.g., Hug, H et al. Mol Cell Biol 8: 3065-79; Pavlovic, J (1993) Ciba Found Symp 176: 233-43) isolated from murine peripheral blood monocytes (PBMC's) was used to detect the presence of biologically active mIFN-β. • A quantitative PCR/RT-PCR assay was developed to quantitate the levels of Mx1 mRNA in murine PBMC's. […] The samples were analyzed with an Mx1-specific probe/primer combination. […] The highest Mx1 expression levels were measured 2 hours after injection. […]

mIFN-β: purified recombinant murine interferon-beta protein
time by which plasma JE dropped to background: ≤ 24 h

From US20080076729A1, “Interferon-beta gene therapy using an improved, regulated expression system” (Schering Aktiengesellachaft, priority 2005, published 2008)
